# Key:
# [1] = test system: SW620; assay: MTT cell viability test, SW620; type: cell-based; details: Homo sapiens, SW-620, 72 h, up to 3 days, read-out: tumor cell viability
# Description: (§1) Ohmline nanoparticles were used to deliver docetaxel into different cancer cell lines. Cell viability was determined using tetrazolium salt reduction method (MTT)(CyQUANT™ MTT Cell Viability Assary, Thermo Fisher Scientific product V13154: https://www.thermofisher.com/order/catalog/product/V13154?ef_id=4431670897231bd9f4af0 436727d3335: G: s&s_kwcid=AL!3652!10!77240846955634!77240903742099&cid=bid_pca_i va_r01_co_cp1359_pjt0000_bid00000_Ose_bng_nt_pur_con&msclkid=4431670897231bd9f 4af0436727d3335 #/V13154), that reflects the number of viable cells. 6500 cells were seeded at day=0 in a 48 wells plate. Each well was filled up with the regular medium of the cancer cell. At day=1 the medium was aspirated and replaced with new media for each formulation to be tested. Cells were incubated up to 3 days.
# (§2) At the end of the incubation, the medium was aspirated and replaced with MTT solution at 0.5 mg/ml concentration. The plate was incubated at 37° C. by 30-45 min. After incubation the supernatant was aspirated, and the formed crystals dissolved with DMSO and gently agitation at room temperature protected from the light. 200 μl were transferred from each well to 96 well plates to measure the absorbance at 570 nm. (see FIGS. 8A, 8B and 8C).
# (§3) Ohmline control at 1 and 5 μM, in MLV formulation.
# (§4) DOX is docetaxel at 0,5 and 1 nM, in DMSO. […]
# [2] = test system: MDA MB 231; assay: MTT cell viability test, MDA MB 231; type: cell-based; details: Homo sapiens, 72 h, up to 3 days, read-out: tumor cell viability
# Description: as §1, §2, §3, §4
# [3] = test system: PC3; assay: MTT cell viability test, PC3; type: cell-based; details: Homo sapiens, PC-3, 72 h, up to 3 days, read-out: tumor cell viability
# Description: as §1, §2, §3, §4
# [4] = test system: MCF7; assay: MTT cell viability test, MCF7; type: cell-based; details: Homo sapiens, 72 h, up to 3 days, read-out: tumor cell viability
# Description: as §1, §2, §3, §4
# [5] = test system: MDA MB 435; assay: MTT cell viability test, MDA MB 435; type: cell-based; details: Homo sapiens, 72 h, up to 3 days, read-out: tumor cell viability
# Description: as §1, §2, §3, §4
# [6] = test system: receptors for lysophosphatidic acid (LPA); details: cited from earlier work
# [7] = Ames tests; cited from earlier work
# [8] = biological target: receptors for platelet activating factor (PAF) (Homo sapiens, UniProt P25105); details: cited from earlier work
# [9] = 15 mg/Kg, up to 4 months treatment; cited from earlier work
# [10] = biological target: SK2 channel (Homo sapiens, UniProt Q9H2S1); details: cited from earlier work
# [11] = test system: SKCa channels; details: cited from earlier work
# [12] = rodents; no observable tissue damage by a pathologist; cited from earlier work
# [13] = cited from earlier work
# [14] = ADME studies, distribution; type: in vivo
# [15] = biological target: IKCa/SK4 channel (Homo sapiens, UniProt O15554); details: cited from earlier work
# [16] = cited from earlier work; remark: listed apart in the source
# [17] = test system: SK3-expressing cells; details: in vivo; cited from earlier work
# [18] = test system: SK3-expressing cancer cells; details: at 10 nM; cited from earlier work
# [19] = test system: protein kinase C (PKC); details: cited from earlier work
# [20] = biological target: SK3 channel (Homo sapiens, UniProt Q9UGI6); details: cited from earlier work
# [21] = test system: MDA-MB-231, HCT116, PC3, HaCaT and fibroblasts; details: 25 μM for 48 h; cited from earlier work
# Sequence of receptors for platelet activating factor (PAF) (P25105 whole entry): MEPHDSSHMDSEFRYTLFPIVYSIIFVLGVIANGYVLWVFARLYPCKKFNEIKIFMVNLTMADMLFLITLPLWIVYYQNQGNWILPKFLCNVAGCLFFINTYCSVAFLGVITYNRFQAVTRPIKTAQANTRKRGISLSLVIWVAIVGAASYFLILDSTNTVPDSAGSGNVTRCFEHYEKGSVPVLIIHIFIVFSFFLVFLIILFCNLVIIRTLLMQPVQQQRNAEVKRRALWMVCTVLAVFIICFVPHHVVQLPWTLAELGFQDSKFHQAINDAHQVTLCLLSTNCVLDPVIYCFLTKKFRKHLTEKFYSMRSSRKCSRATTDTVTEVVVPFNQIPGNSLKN
# Sequence of IKCa/SK4 channel (O15554 whole entry): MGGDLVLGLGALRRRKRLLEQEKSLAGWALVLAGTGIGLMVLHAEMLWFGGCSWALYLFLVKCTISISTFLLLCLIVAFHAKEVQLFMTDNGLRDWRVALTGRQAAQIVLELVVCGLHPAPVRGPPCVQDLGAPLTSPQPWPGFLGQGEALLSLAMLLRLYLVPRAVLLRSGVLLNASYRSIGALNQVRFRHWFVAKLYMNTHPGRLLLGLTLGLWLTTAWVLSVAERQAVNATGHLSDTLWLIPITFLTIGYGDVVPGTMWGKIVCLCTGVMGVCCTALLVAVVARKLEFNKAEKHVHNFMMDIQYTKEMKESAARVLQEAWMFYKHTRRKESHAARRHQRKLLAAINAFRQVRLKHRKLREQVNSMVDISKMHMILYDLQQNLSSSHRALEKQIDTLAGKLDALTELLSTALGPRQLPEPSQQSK
# Sequence of SK2 channel (Q9H2S1 whole entry): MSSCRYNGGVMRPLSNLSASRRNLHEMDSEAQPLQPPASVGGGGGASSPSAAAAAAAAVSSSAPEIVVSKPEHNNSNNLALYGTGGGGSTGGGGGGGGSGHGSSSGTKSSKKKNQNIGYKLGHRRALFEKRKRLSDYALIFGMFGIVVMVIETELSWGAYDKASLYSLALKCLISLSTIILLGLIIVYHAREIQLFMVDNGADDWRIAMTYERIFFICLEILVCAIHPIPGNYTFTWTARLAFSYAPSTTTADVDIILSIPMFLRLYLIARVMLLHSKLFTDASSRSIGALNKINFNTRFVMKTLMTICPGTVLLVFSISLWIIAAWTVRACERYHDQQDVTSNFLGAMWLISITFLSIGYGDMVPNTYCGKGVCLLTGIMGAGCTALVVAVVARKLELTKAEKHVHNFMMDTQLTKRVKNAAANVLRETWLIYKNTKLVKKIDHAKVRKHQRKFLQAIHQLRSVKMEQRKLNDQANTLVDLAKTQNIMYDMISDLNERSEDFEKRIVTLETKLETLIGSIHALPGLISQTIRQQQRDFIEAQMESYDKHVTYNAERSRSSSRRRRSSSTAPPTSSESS
compound,measurement,setting,value
"CC(=O)O[C@@]12CO[C@@H]1C[C@H](O)[C@@]1(C)C(=O)[C@H](O)C3=C(C)[C@@H](OC(=O)[C@H](O)[C@@H](NC(=O)OC(C)(C)C)c4ccccc4)C[C@@](O)([C@@H](OC(=O)c4ccccc4)[C@H]21)C3(C)C [DOX, docetaxel]",viability at 0.0005 µM,[1]; DOX 0.5 nM in DMSO,99%
same,viability at 0.001 µM,[1]; DOX 1 nM in DMSO,92%
same,viability at 0.0005 µM,[2]; DOX 0.5 nM in DMSO,72%
same,viability at 0.001 µM,[2]; DOX 1 nM in DMSO,73%
same,viability at 0.0005 µM,[3]; DOX 0.5 nM in DMSO,79%
same,viability at 0.001 µM,[3]; DOX 1 nM in DMSO,73%
same,viability at 0.0005 µM,[4]; DOX 0.5 nM in DMSO,97%
same,viability at 0.001 µM,[4]; DOX 1 nM in DMSO,84%
same,viability at 0.0005 µM,[5]; DOX 0.5 nM in DMSO,100%
same,viability at 0.001 µM,[5]; DOX 1 nM in DMSO,69%
"CCCCCCCCCCCCCCCCOCC(COC1OC(CO)C(OC2OC(CO)C(O)C(O)C2O)C(O)C1O)OC (centres unmarked) [Ohmline, 1-O-hexadecyl-2-O-methyl-sn-glycero-3-lactose]",effect on receptors for lysophosphatidic acid (LPA),[6],no effect
same,mutagenic potential,[7],no mutagenic potential
same,effect on receptors for platelet activating factor (PAF),[8],no effect
same,acute toxicity,[9],no acute toxicity
same,effect on SK2 channel,[10],only slightly but not significantly affected
same,displacement of apamin from SKCa channels,[11],did not displace
same,tolerance and safety,[12],good tolerance and an apparent safety
same,micronuclei test effect,[13]; at 100 μM,weak positive effect
same,in vitro concentrations with no toxicity or genotoxicity,[13]; concluded from Ames and micronuclei tests,lower than 10 μM
same,distribution to brain,[14],able to cross the blood brain barrier
same,effect on IKCa/SK4 channel,[15],did not affect
same,persistence in brain,[16]; after the end of administration,present in brain still two weeks after the end of its administration
same,incorporation in tissues,"[16]; stomach, intestine, kidney, liver, heart and brain",incorporated in the tissues tested
same,metastasis development,[17],reduce not only bone metastasis development but also lung and lymph node metastases
same,reduction of migration of SK3-expressing cancer cells (efficiency),[18],50%
same,effect on protein kinase C (PKC),[19],no effect
same,IC50,[20]; SK3 channel,300 nM
same,potency SK3 versus SK1 channel,[20],greater for SK3 channel than for SK1 channel
CCCCCCCCCCCCCCCCCCOCC(COP(=O)([O-])OCC[N+](C)(C)C)OC (centres unmarked) [Edelfosine],cells still alive,[21],~0%

# From patent publication US20260216067A1, “CARRIER AS A MULTIFUNCTIONAL SYSTEM” (LIFESOME THERAPEUTICS, S.L., priority 2022, published 2026)
